Read-outs that look alike come from different tables or passages of the source. Square brackets hold non-standard residues; d marks the D form. Peptide text beside a SMILES is read from it.
What was measured:
human erythrocytes = assay: Hemolysis assay; format: cell-based; conditions: for Hemolysis IC50: human erythrocytes, 4 h at 37 °C, value in brackets; for IC50: red cells of human, 4 h
Description: Commercially available human blood (IWB1K2E10ML, Innovative Research Inc., Novi, MI, USA) was used to produce a 50% haematocrit solution by mixing at 1:1 with PBS 1× (P5493, 1 L, Sigma, St. Louis, MO, USA). Three consecutive PBS 1× washes plus centrifugation at 2600 rpm for 10 min steps were performed. Finally, a 2% erythrocyte solution was prepared in PBS 1× and chilled on ice until used. Polypropylene plates were filled with 50 µL PBS 1× per well for the samples and 50 µL 2% Triton X-100 (TX-100, 9002-93-1, 100 mL, Sigma, St. Louis, MO, USA) for the hemolysis controls. A solution at 4× final concentration of the assay of each peptide was prepared in PBS and 50 µL were added to the first column of each plate, followed by serial dilutions in the microplate. Then, 50 µL of the 2% erythrocyte solution was added to each plate. […] controls consisted in a 1:1 mix of PBS 1× and erythrocytes at 2%. Plates were incubated at 37 °C for 4 h and then centrifuged at 1500 rpm for 5 min. Eighty µL were extracted from the supernatant of each well carefully and transferred to a polystyrene flat bottom plate for reading and read at 450 nm in an Epoch microplate spectrophotometer (Epoch™, BioTek, Winooski, VT, USA).
The therapeutic index is a widely accepted parameter to represent the specificity of antimicrobial peptides for prokaryotic versus eukaryotic cells. It is calculated by the ratio of HC50 (hemolytic activity) and MIC (antimicrobial activity); thus, larger values of therapeutic index indicate greater specificity for prokaryotic cells.

A549 cells = format: cell-based, human; conditions: for IC50: 24 h; for A549 IC50: 24 h treatment, XTT, value in brackets
Description: (§1) Cell viability assays were performed against HeLa and A549 cells. Cells were seeded in Corning 96-well microplates at 2 × 10^3 cells/well and 5 × 10^3 cells/well and incubated for 24 h at 37 °C. Then, cells were treated with peptides dissolved in Dulbecco’s Modified Eagle’s Medium for 24 h; peptide concentration range 0.1–100 µM. The peptide solution was then removed, and fresh medium was added to the cells. Finally, 50 µL of activated-XTT solution was added and incubated for 4 h at 37 °C. A PowerWave X reader (BioTek, Winooski, VT, USA) was used to measure absorbance at 450 nm. Cell viability was calculated through the ratio of the absorbance of peptide-treated cells over the absorbance of untreated cells. Triplicates were run for each experiment.

HeLa cells = format: cell-based, human; conditions: 24 h
Description: as §1

[1] = test system: P. aeruginosa ATCC 121110; assay: Time-kill kinetic assay; format: cell-based, Pseudomonas aeruginosa
Description: Timepoints to withdraw aliquots of liquid cultures for each peptide, concentration, and strain were established at the following: 0, 2, 4, 8, and 24 h after inoculation. McFarland 0.5 solutions (~1.5 × 10^8 CFU/mL) were prepared from single-picked colonies grown O/N at 37 °C in Columbia Agar plates. Thirteen mL Falcon tubes were used to prepare solutions containing 5 mL of total volume by adding the following: 1 mL of peptide solution at 5 times chosen assay concentration to test, 3.75 mL AST, and 0.25 mL of a 1:10 McFarland dilution in AST. Positive controls contained 4.75 mL AST and 0.25 mL of strain inoculum diluted in AST; negative controls only contained 5 mL of AST. After adding the inoculum into each tube and vortexing, a 150 µL aliquot was taken from each tube at timepoint 0 h. All tubes were then placed in a 37 °C shaker-incubator at 180 rpm. Likewise, for timepoints 2, 4, 8, and 24 h, a 150 µL aliquot was withdrawn at each time for each tube. Each of these aliquots was serially diluted in 1:10 ratio in PBS 1× and 20 µL of the serial dilutions were spread on LB agar plates and incubated O/N at 37 °C. […] grown in LB agar plates were counted. Bacterial concentration (CFU/mL) for each strain, timepoint, and peptide concentration tested was calculated. Bactericidal effect was considered when there was a decrease of at least 3 in log10 (CFU/mL) for each peptide concentration at a given timepoint against each bacterial strain studied. A detection limit of 50 CFU/mL was established, corresponding to 1.70 log10 (CFU/mL), as 20 µL of each direct aliquot sample was spread in LB agar plates. Three replicates were run per peptide and strain.

[2] = test system: P. aeruginosa Strain 121007; format: cell-based, Pseudomonas aeruginosa
In short: (§2)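 Broth microdilution MIC based on CLSI guidance, peptides tested in AST broth in polypropylene round-bottom plates to limit peptide adsorption; colistin tested in cation-adjusted Mueller-Hinton broth per CLSI-EUCAST polymyxin recommendations with E. coli 13846 (mcr-1) and P. aeruginosa ATCC 27853 as QC. Three biological and technical replicates.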

[3] = test system: P. aeruginosa Strain ATCC 121110; format: cell-based, Pseudomonas aeruginosa
In short: as §2

[4] = test system: P. aeruginosa strain panel; format: cell-based, Pseudomonas aeruginosa
In short: as §2

[5] = Strain 121007, value in brackets
[6] = Strain ATCC 121110, value in brackets
[7] = panel of 15 P. aeruginosa strains
[8] = panel of 15 P. aeruginosa strains, value in brackets

Molecule	Hemolysis IC50 (human erythrocytes)	IC50 (human erythrocytes)	IC50 (A549 cells)	A549 IC50 (A549 cells)	IC50 (HeLa cells)	incubation time to 3 log reduction / bactericidal effect ([1]; strain ATCC 121110, 4× MIC)	incubation time to 3 log reduction / bactericidal effect ([1]; strain ATCC 121110, 8× MIC)	MIC ([2]; Strain 121007)	MIC [2, 5]	MIC ([3]; Strain ATCC 121110)	MIC [3, 6]	MIC50 [4, 7]	MIC90 [4, 7]	MIC50 [4, 8]	MIC90 [4, 8]	MIC90 ([4]; strain panel)	effect after 24 h incubation ([1]; strain ATCC 121110, 8× MIC)	MIC50 ([4]; strain panel)
CC[C@@H](C)[C@@H](NC(=O)[C@@H](CCCCN)NC(=O)[C@@H](CCCCN)NC(=O)[C@@H](CC(C)C)NC(=O)[C@@H](CCCCN)NC(=O)[C@@H](CCC(=O)O)NC(=O)[C@@H](CCCCN)NC(=O)[C@H](NC(=O)[C@@H](CCCCN)NC(=O)[C@@H](CC(N)=O)NC(=O)[C@@H](CCCNC(=N)N)NC(=O)[C@@H](Cc1ccccc1)NC(=O)[C@@H](CCCCN)NC(=O)[C@@H](CCCNC(=N)N)NC(=O)[C@@H](CC(C)C)NC(=O)[C@@H](CCCNC(=N)N)NC(=O)[C@@H](CCCCN)NC(=O)[C@@H](CCCNC(=N)N)NC(=O)[C@@H](CC(C)C)NC(=O)CN)[C@H](C)CC)C(=O)NCC(=O)N[C@H](CCC(N)=O)C(=O)N[C@H](CCCCN)C(=O)N[C@@H](C(=O)N[C@H](CCC(N)=O)C(=O)NCC(=O)N[C@H](CC(C)C)C(=O)N[C@H](CC(C)C)C(=O)N1CCC[C@@H]1C(=O)N[C@H](CCCCN)C(=O)N[C@H](CC(C)C)C(=O)O)[C@H](C)CC [D-CAP-18_31, Glrkrlrkfrnkikeklkkigqkiqgllpkl] (H-G[dL][dR][dK][dR][dL][dR][dK][dF][dR][dN][dK][dI][dK][dE][dK][dL][dK][dK][dI]G[dQ][dK][dI][dQ]G[dL][dL][dP][dK][dL]-OH)	404.48 µg/mL	108 µM	12.3 µM	45.94 µg/mL	6.16 µM	4 h	4 h	2 µg/mL	0.5 µM	0.25 µg/mL	0.07 µM	4 µg/mL	16 µg/mL	1.1 µM	4.3 µM	16 µg/mL		
H-GLRKRLRKFRNKIKEKLKKIGQKIQGLLPKL-OH [CAP-18_31]	690.97 µg/mL	185 µM	1.31 µM	4.89 µg/mL	13.1 µM			8 µg/mL	2.1 µM	0.5 µg/mL	0.1 µM	2 µg/mL	16 µg/mL	0.5 µM	4.3 µM		total eradication of the bacterial growth	2 µg/mL

Source: PMC12382740, “In Vitro and In Vivo Characterization of Novel Cathelicidin-Based Peptides with Antimicrobial Activity Against Pseudomonas aeruginosa” (Antibiotics, 2025)
